Results on two molecules are retold here after the NIST ThermoML archive (doi:10.1021/je060501l).

Numbers after ± are expanded uncertainties.

For the data set the following is noted: Liquid.

On to `CC(F)F` [1,1-difluoroethane], for which the “vapor or sublimation pressure” value is, setting by setting: (273.15 K) 265.8 ± 8.6 kPa; (283.15 K) 372.8 ± 12 kPa; (293.15 K) 513.3 ± 16 kPa; (303.15 K) 689.9 ± 22 kPa; (313.15 K) 909.4 ± 28 kPa.
The corresponding values for `CCC` [propane] are 472.5 ± 15 kPa, 633.9 ± 20 kPa, 832.94 ± 26 kPa, 1077 ± 34 kPa and 1370 ± 43 kPa.
